The source of these data is patent publication US11667678B2, “Peptides for the treatment of COVID-19” (priority 2019, dated 2023).

Peptide text beside a SMILES is read from it.

One data set deals with control mice. The following applies: mouse, in vivo.
For data set [1], the system named is human A549 lung cells stimulated with recombinant SARS-CoV-2 spike S1. The following applies: 'See herein and Paidi et al.'; cited from earlier work.
The test system of data set [2] is SARS-CoV-2 spike S1-intoxicated C57/BL6 mice. The following applies: mouse, in vivo.
Data set [3] deals with ACE2:SARS-CoV-2 spike S1 binding (UniProt P0DTC2+Q9BYF1).
The subject of data set [4] is human A549 lung cells stimulated with bacterial flagellin. It counts as cell-based.
Data set [5] relates to human A549 lung cells stimulated with recombinant SARS-CoV-2 spike S1. It counts as cell-based.
Data set [6] relates to SARS-CoV-2 spike S1-intoxicated C57/BL6 mice. The following applies: mouse, in vivo. The source holds these as a separate data set.
In data set [7] the test system is human A549 lung cells stimulated with HIV-1 Tat. Format: cell-based.
The subject of data set [8] is human A549 lung cells stimulated with poly IC. It counts as cell-based.

With `CC(C)[C@H](NC(=O)CNC(=O)[C@H](CC(N)=O)NC(=O)[C@@H](N)[C@@H](C)O)C(=O)NCC(=O)N[C@@H](Cc1ccc(O)cc1)C(=O)O` [wtAIDS, TNGVGY] (H-TNGVGY-OH), the “drug-related side effect (hair loss, appetite loss, weight loss, untoward infection and irritation)” value in the data set with control mice is given as “did not notice any drug-related side effect”.

On to EDLFYQ (SPIDAR peptide) [wtSPIDAR], for which the “SARS-CoV-2 spike S1-induced expression of proinflammatory cytokines” value in data set [1] is listed as “markedly suppresses”. Further, in data set [2], the “arrhythmias (ECG heart functions)” value is on record as “reduced arrhythmias”; the “fever (body temperature)” value is “reduced fever”; the “infiltration of neutrophils into the lungs” value is on record as “attenuated”; the “level of proinflammatory molecules in lungs and serum” value is on record as “decreased”. Further, in data set [2], the locomotor activities entry was “improved locomotor activities” and the “serum level of C-reactive protein (CRP)” value is given as “normalized”. In data set [3], the “SARS-CoV-2 spike S1 binding to immobilized ACE2” value is “Inhibition”.

For TGGVGD (mAIDS peptide), the “expression of IL-6 and IL-1β induced by flagellin” value in data set [4] is on record as “had no effect”. The “SARS-CoV-2 spike S1-mediated induction of IL-6 and IL-1β (mRNA)” value in data set [5] is listed as “had no effect”. Also, in data set [6], the “body temperature (fever)” value is on record as “no such inhibitory effect”; the “level of IL-6 mRNA and protein as well as IL-1β mRNA in lungs” value is reported as “no such inhibitory effect”; the “level of serum IL-6” value was “no such inhibitory effect”; the lung neutrophil infiltration entry is on record as “no such inhibitory effect”. For the same compound, the “expression of IL-6 and IL-1β induced by HIV-1 Tat” value in data set [7] was “had no effect”. For the same compound, the “expression of IL-6 and IL-1β induced by poly IC” value in [8] is recorded as “had no effect”. Further, in [3], the “SARS-CoV-2 spike S1 binding to immobilized ACE2” value was “no such inhibition”.
